Reference: paper PMC6211260 (Journal of Enzyme Inhibition and Medicinal Chemistry, 2018)

Columns and labels:
Type in all cases: cell-based
Leukaemia cell lines = test: NCI five-dose testing, subpanel mean; details: subpanel I: Leukaemia
Protocol: (§1) Screening against the cancer cell lines was carried out at the National Cancer Institute (NCI, Bethesda, Maryland, USA) applying the standard protocol of the NCI[22].

breast cancer cell lines = test: NCI five-dose testing, subpanel mean; details: subpanel IX: breast cancer
Protocol: as §1

CNS cancer cell lines = test: NCI five-dose testing, subpanel mean; details: subpanel IV: CNS cancer
Protocol: as §1

colon cancer cell lines = test: NCI five-dose testing, subpanel mean; details: subpanel III: colon cancer
Protocol: as §1

renal cancer cell lines = test: NCI five-dose testing, subpanel mean; details: subpanel VII: renal cancer
Protocol: as §1

[1] = test system: ovarian cancer cell lines; test: NCI five-dose testing, subpanel mean; details: subpanel VI: ovarian cancer
Protocol: as §1

melanoma cell lines = test: NCI five-dose testing, subpanel mean; details: subpanel V: melanoma
Protocol: as §1

[2] = test system: non-small cell lung cancer cell lines; test: NCI five-dose testing, subpanel mean; details: subpanel II: non-small cell lung cancer
Protocol: as §1

[3] = test system: prostate cancer cell lines; test: NCI five-dose testing, subpanel mean; details: subpanel VIII: prostate cancer
Protocol: as §1

[4] = test system: HOP-92 non-small cell lung cancer cell line; test: NCI five-dose testing; details: Homo sapiens; for IC50: HOP-92; for IC (TGI): HOP-92, HOP-92, read-out: TGI (total growth inhibition concentration); for LD50 (lethal dose 50): HOP-92, read-out: LD50 (lethal dose 50)
Protocol: as §1

[5] = test system: K-562 leukaemia cell line; test: NCI five-dose testing; details: for CC50: K562, read-out: LD50 (lethal dose 50); for IC50 / IC (TGI): K-562; for IC (TGI): read-out: TGI (total growth inhibition concentration)
Protocol: as §1

[6] = test system: MDA-MB-468 breast cancer cell line; test: NCI five-dose testing; details: Homo sapiens; for IC50 / IC (TGI): MDA-MB-468; for CC50: MDA-MB-468, read-out: LD50 (lethal dose 50); for IC (TGI): read-out: TGI (total growth inhibition concentration)
Protocol: as §1

[7] = test system: PC-3 prostate cancer cell line; test: NCI five-dose testing; details: Homo sapiens; for LC50 (lethal concentration 50): PC-3, read-out: LD50 (lethal dose 50); for IC50 / IC (TGI): PC-3; for IC50: read-out: IC50; for IC (TGI): read-out: TGI (total growth inhibition concentration)
Protocol: as §1

[8] = test system: A498 renal cancer cell line; test: NCI five-dose testing; details: Homo sapiens; for IC50 / IC (TGI): A498; for LC50 (lethal concentration 50%): A498, read-out: LD50 (lethal dose 50); for IC (TGI): read-out: TGI (total growth inhibition concentration)
Protocol: as §1

[9] = test system: SK-MEL-5 melanoma cell line; test: NCI five-dose testing; details: Homo sapiens; for IC50 / IC (TGI): SK-MEL-5; for LC50 (lethal concentration 50): SK-MEL-5, read-out: LD50 (lethal dose 50); for IC (TGI): read-out: TGI (total growth inhibition concentration)
Protocol: as §1

[10] = test system: OVCAR-4 ovarian cancer cell line; test: NCI five-dose testing; details: Homo sapiens; for IC50 / IC (TGI): OVCAR-4; for LC50 (lethal concentration 50): OVCAR-4, read-out: LD50 (lethal dose 50); for IC (TGI): read-out: TGI (total growth inhibition concentration)
Protocol: as §1

[11] = test system: U251 CNS cancer cell line; test: NCI five-dose testing; details: Homo sapiens; for CC50: U-251, read-out: LD50 (lethal dose 50); for IC50 / IC (TGI): U-251, U251; for IC50: read-out: IC50; for IC (TGI): read-out: TGI (total growth inhibition concentration)
Protocol: as §1

[12] = test system: HT-29 colon cancer cell line; test: NCI five-dose testing; details: Homo sapiens; for CC50: HT-29, read-out: LD50 (lethal dose 50); for IC50 / IC (TGI): HT-29; for IC50: read-out: IC50; for IC (TGI): read-out: TGI (total growth inhibition concentration)
Protocol: as §1

| SMILES | IC50 (Leukaemia cell lines) [nM] | IC50 (breast cancer cell lines) [nM] | IC50 (CNS cancer cell lines) [nM] | IC50 (colon cancer cell lines) [nM] | IC50 (renal cancer cell lines) [nM] | IC50 [1] [µM] | IC50 (melanoma cell lines) [nM] | IC50 [2] [µM] | IC50 [3] [µM] | IC50 [4] [nM] | IC (TGI) [4] [µM] | LD50 (lethal dose 50) [4] [µM] | CC50 ([5]; Homo sapiens) [µM] | IC50 ([5]; Homo sapiens, K562) [nM] | IC (TGI) ([5]; Homo sapiens, K562) [µM] | IC50 [6] [nM] | CC50 [6] [µM] | IC (TGI) [6] [µM] | LC50 (lethal concentration 50) [7] [µM] | IC50 [7] [nM] | also measured |
| --- | --- | --- | --- | --- | --- | --- | --- | --- | --- | --- | --- | --- | --- | --- | --- | --- | --- | --- | --- | --- | --- |
| O=S(=O)(NCCNc1cc(-c2cn(-c3ccccc3)nc2-c2cccc(O)c2)ccn1)c1ccc(C(F)(F)F)cc1 [Compound 1o, N-(2-((4-(3-(3-Hydroxyphenyl)-1-phenyl-1H-pyrazol-4-yl)pyridin-2-yl)amino)ethyl)-4-(trifluoromethyl)benzenesulfonamide] | 2340 | 2110 | 2670 | 2380 | 2450 | 3.12 | 2370 | 3.03 | 3.45 | 1970 | 6.2 | 52 | > 100 | 2480 | 6.5 | 2050 | > 100 | 5.02 | 93.4 | 2470 | IC (TGI) [7]: 10.9 µM; IC50 [8]: 1710 nM; LC50 (lethal concentration 50%) [8]: 41.4 µM; IC (TGI) [8]: 14.5 µM; IC50 [9]: 1780 nM; LC50 (lethal concentration 50) [9]: 6.3 µM; IC (TGI) [9]: 3.3 µM; IC50 [10]: 2.85 µM; LC50 (lethal concentration 50) [10]: 81.2 µM; IC (TGI) [10]: 16.9 µM; CC50 [11]: 44.1 µM; IC50 [11]: 2650 nM; IC (TGI) [11]: 7.2 µM; CC50 [12]: 35.1 µM; IC50 [12]: 2040 nM; IC (TGI) [12]: 5.4 µM |
| O=S(=O)(NCCCNc1cc(-c2cn(-c3ccccc3)nc2-c2cccc(O)c2)ccn1)c1ccc(F)cc1 [Compound 2m, 4-Fluoro-N-(3-((4-(3-(3-hydroxyphenyl)-1-phenyl-1H-pyrazol-4-yl)pyridin-2-yl)amino)propyl)benzenesulfonamide] | 2250 | 2690 | 3280 | 2680 | 3810 | 3.79 | 2890 | 3.91 | 3.62 | 2660 | 7.6 | 84.2 | > 100 | 2400 | 6.3 | 2550 | > 100 | 6.7 | 80.7 | 3110 | IC (TGI) [7]: 8.5 µM; IC50 [8]: 3520 nM; LC50 (lethal concentration 50%) [8]: 52.3 µM; IC (TGI) [8]: 9.8 µM; IC50 [9]: 3060 nM; LC50 (lethal concentration 50) [9]: 33 µM; IC (TGI) [9]: 10.1 µM; IC50 [10]: 3.82 µM; LC50 (lethal concentration 50) [10]: > 100 µM; IC (TGI) [10]: 4.8 µM; CC50 [11]: 69.5 µM; IC50 [11]: 2970 nM; IC (TGI) [11]: 10.3 µM; CC50 [12]: 47.8 µM; IC50 [12]: 2260 nM; IC (TGI) [12]: 6.4 µM |
| O=S(=O)(NCCCNc1cc(-c2cn(-c3ccccc3)nc2-c2cccc(O)c2)ccn1)c1ccc(C(F)(F)F)cc1 [Compound 2o, N-(3-((4-(3-(3-Hydroxyphenyl)-1-phenyl-1H-pyrazol-4-yl)pyridin-2-yl)amino)propyl)-4-(trifluoromethyl)benzenesulfonamide] | 1900 | 1870 | 1710 | 1640 | 2030 | 2.32 | 1720 | 2.12 | 2.79 | 1410 | 3.6 | 9.7 | > 100 | 610 | 5.3 | 1850 | > 100 | 5.5 | 18.9 | 2870 | IC50 [5]: 617 nM; IC (TGI) [7]: 4.5 µM; IC50 [8]: 1090 nM; LC50 (lethal concentration 50%) [8]: 6.3 µM; IC (TGI) [8]: 2.6 µM; IC50 [9]: 1570 nM; LC50 (lethal concentration 50) [9]: 5.6 µM; IC (TGI) [9]: 2.9 µM; IC50 [10]: 3.06 µM; LC50 (lethal concentration 50) [10]: > 100 µM; IC (TGI) [10]: 5.1 µM; CC50 [11]: 8.1 µM; IC50 [11]: 1780 nM; IC (TGI) [11]: 3.2 µM; CC50 [12]: 8.1 µM; IC50 [12]: 500 nM; IC (TGI) [12]: 3.1 µM |
